# Source: ChEMBL document CHEMBL3046570, “Synthesis, structure characterization, and biological evaluation of some new 1,2,3-benzotriazole derivatives” (2010)
# Calls of active or inactive are those of the source. No cut-off for these calls is given here.
# Key:
# Mycosphaerella arachidis = assay: Fungicidal activity against Mycosphaerella arachidis assessed as inhibition of mycelium formation at 50 ug/ml after 72 hr (reference value: 0.005%); format: functional
# Homo sapiens = organism: Homo sapiens; assay: Cytotoxicity against Homo sapiens (human) HEP7402 cells assessed as decrease in cell viability at 0.05 to 0.2 mM after 24 to 72 hr by MTT assay; format: functional, cell-based
# 4T1 [1] = assay: Cytotoxicity against Mus musculus (mouse) 4T1 cells assessed as cell survival at 0.2 mM after 72 hr by MTT assay relative to control; format: functional; conditions: 4T1, 72 h, read-out: Survival
# 4T1 [2] = assay: Cytotoxicity against Mus musculus (mouse) 4T1 cells assessed as decrease in cell viability after 24 to 72 hr by MTT assay; format: functional, cell-based
# 4T1 [3] = assay: Cytotoxicity against Mus musculus (mouse) 4T1 cells assessed as cell survival at 0.2 mM after 48 hr by MTT assay relative to control; format: functional; conditions: 4T1, 48 h, read-out: Survival
# 4T1 [4] = assay: Cytotoxicity against Mus musculus (mouse) 4T1 cells assessed as decrease in cell viability at 0.2 mM by MTT assay; format: functional, cell-based; conditions: TDE = time-dependent effect
# 4T1 [5] = assay: Cytotoxicity against Mus musculus (mouse) 4T1 cells assessed as cell survival at 0.2 mM after 24 hr by MTT assay relative to control; format: functional; conditions: 4T1, 24 h, read-out: Survival
structure (smiles),measurement,setting,value
O=C(OC(Cn1nnc2ccccc21)C(=O)c1ccccc1)c1ccncc1 (stereo unspecified),inhibition at 50 µg/mL,Mycosphaerella arachidis,13%
Cc1ccc(C(=O)C(Cn2nnc3ccccc32)OC(=O)c2cccnc2)cc1 (stereo unspecified),inhibition at 50 µg/mL,Mycosphaerella arachidis,0%
same,Activity,Homo sapiens,Active
O=C(OC(Cn1nnc2ccccc21)C(=O)c1ccc(Cl)cc1Cl)c1cccnc1 (stereo unspecified),inhibition at 50 µg/mL,Mycosphaerella arachidis,31.3%
O=C(OC(Cn1nnc2ccccc21)C(=O)c1ccc(Cl)cc1)c1cccnc1 (stereo unspecified),inhibition at 50 µg/mL,Mycosphaerella arachidis,18.8%
same,viability at 200 µM,4T1 [1],40.3%
same,Activity,4T1 [2],Dose-dependent effect
same,viability at 200 µM,4T1 [3],45%
same,Activity,4T1 [4],tde
same,viability at 200 µM,4T1 [5],52.2%
O=C(OC(Cn1nnc2ccccc21)C(=O)c1ccccc1)c1cccnc1 (stereo unspecified),inhibition at 50 µg/mL,Mycosphaerella arachidis,15%
